The values that follow come from paper PMC4033217, “Characterization of Novel PI3Kδ Inhibitors as Potential Therapeutics for SLE and Lupus Nephritis in Pre-Clinical Studies” (Frontiers in Immunology, 2014).

In data set [1] the test system is CD69 on CD19+ cells, PBMCs from SLE patients. The data set can be described thus: Anti-IgM-induced CD69 up-regulation in PBMCs from SLE patients. Particulars: Homo sapiens, PBMC, 18 h, SLE patient PBMC, anti-IgM 18 h. The class given is cell-based. As for the experimental part: Heparinized human blood or buffy-coat prepared from healthy donors was obtained from the “Center de transfusion sanguine” of Geneva (Switzerland). Cryopreserved PBMCs from SLE patients were obtained from Asterand (Detroit, MI, USA). […] Studies were approved by Merck Serono ethics committee.
(A) Peripheral blood from healthy donors were collected in heparinized tubes and stimulated with anti-IgM for 5 min. Intracellular pAkt gated on CD19^+ cells were analyzed by flow cytometry. […] CD69 up-regulation on CD19^+ cells were analyzed by flow cytometry. Mean fluorescent intensity (MFI) from basal and stimulated conditions without inhibitor were used as 100% of activity. […]

Data set [2] relates to panel of 278 additional kinases. The data set can be described thus: Kinase selectivity profile at 10 µM. Particulars: significant inhibition = >50%, ATP at Km. It counts as biochemical.
The nature of data set [3]: Unbound plasma protein binding, mouse. The class given is in vitro ADME. Particulars: unbound fraction. The text has this: (§1) 36 CLint: intrinsic clearance in liver microsomes. h/m: human/mouse. Papp: apparent permeability. uPPB:
(§2) 37 unbound plasma protein binding. […]

Data set [4] addresses PI3K δ (Homo sapiens, UniProt O00329). The data set can be described thus: Scintillation proximity assay, PI3Kδ enzymatic activity. It counts as biochemical. The settings on record: PI3K δ; 65 μM ATP; read-out: Enzymatic potency IC50. (SPA uses beads or plates that emit light when radiolabelled molecules are held near them.)
The test system of data set [5] is PI3K δ. The description is as above. It counts as biochemical, human.
A short description of data set [6]: Intrinsic clearance in mouse liver microsomes. Particulars: read-out: In vitro Clint. It counts as in vitro ADME.
Description: as §1, §2
Background: Liver microsomes are vesicles of endoplasmic reticulum, rich in cytochrome P450 enzymes.

The subject of data set [7] is CD19+ B cells. The data set can be described thus: B cell proliferation assay (anti-IgM + IL-4, [3H]thymidine). It counts as cell-based, human. Particulars: for IC50: anti-IgM and IL-4, 4 days. As for the experimental part: CD19^+ B cells were isolated from PBMC of healthy volunteers by negative selection using the B cell purification kit II (Miltenyi Biotech, Bergisch Gladbach, Germany) and following manufacturer’s instructions. […] Proliferation was assessed by a multiplate beta counter (Perkin Elmer, Shelton, CT, USA).

Another data set has as its system pAkt. In words: Imax PK/PD model of BCR activation-induced pAkt response. Particulars: mouse, estimated in vivo PD parameter (pAkt). The text has this: An Imax PK/PD model describing BCR activation-induced pAkt response was established using data from in vitro and ex vivo mouse whole blood assays.
Data set [8] in a line: Intrinsic clearance in human liver microsomes. The class given is in vitro ADME. The settings on record: read-out: In vitro Clint.
Description: as §1, §2

Data set [9] relates to CD19+ B cells. In words: B cell cytokine release assay (anti-Ig, CpG ODN 2006, IFNα). It counts as cell-based. The settings on record: Homo sapiens, 48 h. The procedure: Cytokines in the supernatants were measured with Cytometric Bead Array kits (BD Biosciences Pharmingen, San Diego, CA, USA).
Data set [10] deals with pAkt in CD19+ B cells, human whole blood. The data set can be described thus: Anti-IgM-induced pAkt in human whole blood. The class given is cell-based. Particulars: B-cell, 5 min, healthy donors. The procedure:
Human whole blood was incubated with PI3Kδ inhibitors for 30 min and stimulated with 30 μg/ml anti-IgM (Jackson Immuno Research, West Grove, PA, USA) for 5 min at 37°C. […] Cell were stained with rabbit anti-pAkt (Ser473) followed by the Alexa647-conjugated F(ab′)2 goat anti-rabbit IgG (Invitrogen, Carlsbad, CA, USA), and anti-CD19-PE (BD Biosciences Pharmingen, San Diego, CA, USA). CD19^+ cells were gated for pAkt analysis.

PI3K δ (Homo sapiens, UniProt O00329), sequence (O00329 whole entry): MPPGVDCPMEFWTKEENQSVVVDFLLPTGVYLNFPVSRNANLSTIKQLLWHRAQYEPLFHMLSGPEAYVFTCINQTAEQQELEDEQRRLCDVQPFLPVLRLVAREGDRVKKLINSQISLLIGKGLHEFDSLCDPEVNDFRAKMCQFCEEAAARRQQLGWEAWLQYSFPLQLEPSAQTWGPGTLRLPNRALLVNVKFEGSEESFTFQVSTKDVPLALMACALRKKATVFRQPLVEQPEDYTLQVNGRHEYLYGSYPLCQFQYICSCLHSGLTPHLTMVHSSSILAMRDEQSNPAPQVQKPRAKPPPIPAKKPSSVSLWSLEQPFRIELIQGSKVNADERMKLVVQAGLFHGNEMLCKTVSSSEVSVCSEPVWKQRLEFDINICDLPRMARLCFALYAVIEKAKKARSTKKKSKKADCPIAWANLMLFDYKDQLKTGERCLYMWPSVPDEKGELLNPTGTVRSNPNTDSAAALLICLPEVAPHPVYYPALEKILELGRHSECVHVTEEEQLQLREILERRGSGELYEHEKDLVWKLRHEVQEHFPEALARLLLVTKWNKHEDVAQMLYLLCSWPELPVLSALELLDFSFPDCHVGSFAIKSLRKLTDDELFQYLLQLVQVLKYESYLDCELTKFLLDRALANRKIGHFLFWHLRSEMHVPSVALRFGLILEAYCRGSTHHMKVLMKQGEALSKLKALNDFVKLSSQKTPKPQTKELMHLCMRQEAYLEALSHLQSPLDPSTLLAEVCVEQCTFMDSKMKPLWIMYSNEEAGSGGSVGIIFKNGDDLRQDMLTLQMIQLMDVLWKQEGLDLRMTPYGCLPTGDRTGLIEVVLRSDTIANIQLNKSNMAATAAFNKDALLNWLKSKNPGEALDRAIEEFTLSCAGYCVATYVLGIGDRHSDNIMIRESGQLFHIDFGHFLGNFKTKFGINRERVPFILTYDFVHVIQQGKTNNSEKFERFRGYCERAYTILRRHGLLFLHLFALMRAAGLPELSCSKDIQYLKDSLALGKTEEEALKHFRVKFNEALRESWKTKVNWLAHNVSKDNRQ

As for `O=C(c1nn([C@@H]2CCCN(CCN3CCOCC3)C2)c2c1CS(=O)(=O)c1cc(F)ccc1-2)N1CCOCC1` [MSC2364588, (R)-7-fluoro-3-(morpholin-4-ylcarbonyl)-1-[1-(2-morpholin-4-ylethyl)piperidin-3-yl]-1,4-dihydrothiochro-meno[4,3-c]pyrazole 5,5-dioxide], the IC50 is 12 nM in [1] (another donor (Figure 4C, right)); 9 nM in data set [1] (one donor (Figure 4C, left)); 15 nM on PI3K δ [4]; 7 nM in the data set with CD19+ B cells [7] (Homo sapiens, B-cell, 96 h); 6 nM with CD19+ B cells [7]; 47 nM with pAkt. Also, the half-maximal inhibitory concentration (IC50) with CD19+ B cells [9] (read-out: IC50 IL-6) worked out at 9 nM; in the data set on CD19+ B cells [9] (read-out: IC50 IL-10), 10 nM; with CD19+ B cells [9] (read-out: IC50 TNF-α), 18 nM; in data set [10], 32 nM. Also, in data set [2], the “Inhibition of kinases in the panel” value is “impaired Hck and PAK3 activity”. The compound further returned a uPPB % in data set [3] of 65%. Also, the “Potency relative to MSC2360844” value is listed as 5–10 times in the data set on PI3K δ [5] (all assays, cell types and in vitro enzymatic activity); 10 fold with PI3K δ [5] (enzymatic and cellular contexts); 10 times with CD19+ B cells [7] (B cell function). Also, the microsomal CLint in data set [6] turned out to be 35 µL/min/mg; in [8] it was 21 µL/min/mg.

The term IC50 denotes the concentration at which inhibition is half-maximal.
